In paper PMC10748408 (Frontiers in Oncology, 2023):

Legend:
tumor-bearing mice = experiment: Serum biochemical parameters (ALT, AST, creatinine, urea) of tumor-bearing mice treated with ART; assay type: in vivo, BALB/c mice; settings: 7 days
Method: Mouse mammary 4T1 cells in passage numbers between 7 and 12 (10^4 cells/ml in 50 µl PBS) were injected into the inguinal 4th mammary fat pad of BALB/c mice ([23], [24]). Normal mice received an equal volume of sterile PBS. A palpable tumor was allowed to develop for 14 days ([24]). […] Normal (mammary fat pad surrounding the 4th inguinal mammary pad), mammary tumor, and organs like lungs, kidney, liver, and blood were collected at the end of the experimental schedule. Body weight and tumor volume of each mouse were recorded daily during the tenure of the experiment. Tumor volume was calculated using the following formula: length (mm) × width^2 (mm) × 0.52 ([25]). Levels of alanine aminotransferase (ALT) and aspartate aminotransferase (AST) from the serum were determined using ALT and AST estimation kits (Robonik India Pvt. Ltd, India). Briefly, for ALT activity estimation, Reagent 1 (Tris Buffer, L-Alanine, Lactate Dehydrogenase) and Reagent 2 (α-ketoglutarate, NADH) was mixed (4:1) with 100 µl serum. After 60 seconds incubation, absorbance was measured at 340 nm every minute for 180 seconds (ΔA/minute). Finally, the activity was estimated using the formula: Activity of the sample = (ΔA/minute x 1746). Analysis and final calculations were carried out according to the manufacturer’s protocol ([29]) For AST activity estimation, Reagent 1 (Tris Buffer, L-Aspartate, Lactate Dehydrogenase; >600U/L, Malate dehydrogenase; >600U/L) and Reagent 2 (α-ketoglutarate, NADH) was mixed together (4:1) with 100 µl serum. After incubation for 60 seconds, absorbance was measured at 340 nm per minute for 180 seconds (ΔA/minute). Finally, the activity was estimated using the formula: Activity of the sample = (ΔA/minute x 1746). Analysis and final calculations were carried out according to the manufacturer’s protocol ([30]). For estimation of creatinine level, picric acid (0.5 ml), buffer (0.5 ml) and sample (Test)/standard (S) (0.1 ml) were mixed and absorbance was measured at 520 nm for 30 seconds and 60 seconds. The rate of change of absorbance was determined for the standard (ΔS) and test (ΔT) samples. The levels were estimated using the formula: creatinine (mg/dl) = (ΔT)/(ΔS) x 2.0 ([31]). Urea levels were estimated using specific metabolite analysis kits. Buffer (1 ml), enzyme (0.1 ml), sample (test)/standard (0.1 ml) and chromogen reagent (0.2 ml) were mixed. Absorbance was measured at 570 nm after 5 minutes of incubation of test (Abs T) and standard (Abs S) samples. The levels were estimated using the formula: Urea (mg/dl) = (AbsT)/(AbsS) x 40. Analysis and calculations were carried out according to the manufacturer’s protocol ([32]).

[1] = system: ALDH+ cells (CSCs) of mammary tumors; experiment: ALDH+ population estimation (Aldefluor) in tumors; assay type: in vivo, BALB/c mice; settings: untreated tumor 24.1%
Method: Mammary fat pad and tumor tissues (1 × 10^6 cells/ml) were resuspended in aldefluor™ assay buffer containing ALDH substrate and incubated for 45 minutes at 37°C. As a control, cells were resuspended in buffer containing aldefluor substrate in the presence of diethylaminobenzaldehyde (DEAB), a specific ALDH inhibitor. The fluorescent ALDH^+ cells were detected in the green fluorescence channel (520-540nm) in a flow cytometer (BD FACS Aria III). ALDH^+ and ALDH^- cells were eventually sorted using the BD Aria III Cell Sorter and sorted cells collected for further analysis (BD Biosciences, USA; [21]).

C[C@@H]1CC[C@H]2[C@@H](C)C(=O)O[C@@H]3O[C@@]4(C)CC[C@@H]1[C@]32OO4 [ART, Artemisinin]
ALT (tumor-bearing mice; ART 6.25 mg/kg body wt i.p.): 43.8 ± 1.8 U/l | AST (tumor-bearing mice; ART 6.25 mg/kg body wt i.p.): 38.6 ± 2.6 U/l | Creatinine (tumor-bearing mice; ART 6.25 mg/kg body wt i.p.): 1.21 ± 0.21 mg/dL | Urea (tumor-bearing mice; ART 6.25 mg/kg body wt i.p.): 44.5 ± 1.8 mg/dL | ALT (tumor-bearing mice; ART 12.5 mg/kg body wt i.p.): 41.3 ± 3.1 U/l | AST (tumor-bearing mice; ART 12.5 mg/kg body wt i.p.): 38.2 ± 2.4 U/l | Creatinine (tumor-bearing mice; ART 12.5 mg/kg body wt i.p.): 0.85 ± 0.18 mg/dL | Urea (tumor-bearing mice; ART 12.5 mg/kg body wt i.p.): 32.3 ± 0.5 mg/dL | ALT (tumor-bearing mice; ART 25 mg/kg body wt i.p.): 38.9 ± 2.9 U/l | AST (tumor-bearing mice; ART 25 mg/kg body wt i.p.): 33.2 ± 2.8 U/l | Creatinine (tumor-bearing mice; ART 25 mg/kg body wt i.p.): 0.71 ± 0.16 mg/dL | Urea (tumor-bearing mice; ART 25 mg/kg body wt i.p.): 32.2 ± 1.1 mg/dL | ALT (tumor-bearing mice; ART 50 mg/kg body wt i.p.): 36.6 ± 1.6 U/l | AST (tumor-bearing mice; ART 50 mg/kg body wt i.p.): 31.8 ± 2.9 U/l | Creatinine (tumor-bearing mice; ART 50 mg/kg body wt i.p.): 0.68 ± 0.11 mg/dL | Urea (tumor-bearing mice; ART 50 mg/kg body wt i.p.): 27.1 ± 1.4 mg/dL | percentage of ALDH+ cells ([1]; T+ 25: ART 25 mg/kg): 8.1% | percentage of ALDH+ cells ([1]; T+ 50: ART 50 mg/kg): 6.2%
